Our source for the IC50 values is ChEMBL document CHEMBL4417633, “Inhibitory polypeptides specific to WNT inhibitors” (2017).

Assay [1] concerns the target T1, Dickkopf-related protein 1 (Homo sapiens, UniProt O94907).
T1 sequence (O94907 whole entry): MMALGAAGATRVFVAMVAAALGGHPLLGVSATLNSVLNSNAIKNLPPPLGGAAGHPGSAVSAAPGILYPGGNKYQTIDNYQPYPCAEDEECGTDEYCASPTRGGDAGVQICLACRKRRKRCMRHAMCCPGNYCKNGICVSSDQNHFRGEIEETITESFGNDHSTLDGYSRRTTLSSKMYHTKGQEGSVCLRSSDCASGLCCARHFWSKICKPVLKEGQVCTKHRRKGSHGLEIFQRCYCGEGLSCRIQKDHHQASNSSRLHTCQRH
The assay is described as follows: Inhibition of biotin-labeled human recombinant DKK1 assessed as reduction in DKK1 interaction with LRP-6/Fc incubated overnight by chemiluminescence based Alpha-screen assay. (In general: In Alpha technology, singlet oxygen from a donor bead excites a nearby acceptor bead.)

For assay [2], the target named is T2, Dickkopf WNT-signaling pathway inhibitor 1 (Rattus norvegicus, UniProt A6I0Z0).
T2 sequence (A6I0Z0 whole entry): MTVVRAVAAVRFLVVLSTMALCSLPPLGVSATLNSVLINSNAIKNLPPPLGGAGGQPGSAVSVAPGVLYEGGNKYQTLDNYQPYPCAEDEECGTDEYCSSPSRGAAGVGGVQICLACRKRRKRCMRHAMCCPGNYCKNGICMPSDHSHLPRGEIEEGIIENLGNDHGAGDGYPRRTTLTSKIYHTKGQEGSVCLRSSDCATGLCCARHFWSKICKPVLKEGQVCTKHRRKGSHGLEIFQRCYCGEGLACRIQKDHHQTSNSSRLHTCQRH
The assay is described as follows: Inhibition of biotin-labeled rat recombinant DKK1 assessed as reduction in DKK1 interaction with LRP-6/Fc incubated overnight by chemiluminescence based Alpha-screen assay.

Molecules are shown by their SMILES. Where a SMILES comes first, the peptide text is derived from it. A value given as a limit tells only on which side of the number the result lay.

As for `CSCC[C@H](NC(=O)[C@@H]1CCCN1C(=O)[C@H](Cc1ccc(O)cc1)NC(=O)[C@H](CS)NC(=O)[C@H](Cc1cnc[nH]1)NC(=O)[C@@H]1CCCN1C(=O)[C@H](Cc1cnc[nH]1)NC(=O)[C@H](CO)NC(=O)CNC(=O)[C@H](CS)NC(=O)[C@H](CCC(N)=O)NC(=O)[C@H](Cc1ccccc1)NC(=O)[C@H](Cc1ccc(O)cc1)NC(=O)[C@H](CO)NC(=O)[C@H](C)NC(=O)[C@@H]1CCCN1C(=O)[C@@H](N)CS)C(=O)N[C@@H](CCC(=O)O)C(=O)N[C@@H](Cc1c[nH]c2ccccc12)C(=O)N[C@@H](CCCNC(=N)N)C(=O)N[C@@H](CS)C(=O)N[C@@H](CC(=O)O)C(=O)NCC(=O)N[C@@H](Cc1ccccc1)C(=O)N[C@@H](CCC(N)=O)C(=O)N[C@@H](CC(=O)O)C(=O)N[C@@H](CS)C(=O)N[C@@H](CCC(=O)O)C(=O)N[C@@H](CC(=O)O)C(=O)NCC(=O)N[C@@H](CO)C(=O)N[C@@H](CC(=O)O)C(=O)N[C@@H](CCC(=O)O)C(=O)N[C@@H](CC(C)C)C(=O)NCC(=O)N[C@@H](CS)C(=O)N1CCC[C@H]1C(=O)N[C@@H](Cc1ccc(O)cc1)C(=O)N[C@@H](CCCNC(=N)N)C(=O)N[C@H](C(=O)O)[C@@H](C)O` (H-CPASYFQCGSHPHCYPMEWRCDGFQDCEDGSDELGCPYRT-OH), the IC50 in assay [1] and in assay [2] was at most 1 nM in each case.
Regarding `CSCC[C@H](NC(=O)[C@H](Cc1ccccc1)NC(=O)[C@H](CCC(=O)O)NC(=O)[C@H](Cc1ccc(O)cc1)NC(=O)[C@H](CO)NC(=O)[C@@H]1CCCN1C(=O)[C@@H](N)CS)C(=O)N[C@@H](CS)C(=O)N[C@@H](C)C(=O)N[C@@H](CC(=O)O)C(=O)N[C@@H](CCCCN)C(=O)N[C@@H](CCSC)C(=O)N[C@@H](CS)C(=O)N[C@@H](Cc1ccccc1)C(=O)N1CCC[C@H]1C(=O)N[C@@H](CC(C)C)C(=O)N[C@@H](CO)C(=O)N[C@@H](Cc1ccccc1)C(=O)N[C@@H](CC(C)C)C(=O)N[C@@H](CS)C(=O)N[C@@H](CC(=O)O)C(=O)NCC(=O)N[C@@H](CCC(=O)O)C(=O)N[C@@H](CC(N)=O)C(=O)N[C@@H](CC(=O)O)C(=O)N[C@@H](CS)C(=O)N[C@@H](CCC(=O)O)C(=O)N[C@@H](CC(=O)O)C(=O)NCC(=O)N[C@@H](CO)C(=O)N[C@@H](CC(=O)O)C(=O)N[C@@H](CCC(=O)O)C(=O)N[C@@H](CC(=O)O)C(=O)N[C@@H](Cc1ccc(O)cc1)C(=O)N[C@@H](CS)C(=O)N1CCC[C@H]1C(=O)N[C@@H](CO)C(=O)N[C@@H](CCCNC(=N)N)C(=O)N[C@H](C(=O)O)[C@@H](C)O` (H-CPSYEFMCADKMCFPLSFLCDGENDCEDGSDEDYCPSRT-OH), the IC50 in assay [1] and in assay [2] was at most 1 nM in each case.
Turning to `CC[C@H](C)[C@H](NC(=O)[C@H](CCC(=O)O)NC(=O)[C@H](CC(=O)O)NC(=O)[C@H](CO)NC(=O)CNC(=O)[C@H](CC(=O)O)NC(=O)[C@@H](NC(=O)[C@H](CS)NC(=O)[C@H](CC(=O)O)NC(=O)[C@H](Cc1cnc[nH]1)NC(=O)[C@H](Cc1ccccc1)NC(=O)CNC(=O)[C@H](CC(=O)O)NC(=O)[C@H](CS)NC(=O)[C@H](CCCNC(=N)N)NC(=O)[C@H](Cc1c[nH]c2ccccc12)NC(=O)[C@H](CCC(=O)O)NC(=O)[C@H](CCSC)NC(=O)[C@@H]1CCCN1C(=O)[C@H](Cc1ccc(O)cc1)NC(=O)[C@H](CS)NC(=O)[C@H](Cc1cnc[nH]1)NC(=O)[C@H](CC(N)=O)NC(=O)[C@H](Cc1cnc[nH]1)NC(=O)[C@H](Cc1cnc[nH]1)NC(=O)[C@H](CCCNC(=N)N)NC(=O)[C@H](CS)NC(=O)[C@H](CCC(N)=O)NC(=O)[C@H](Cc1ccccc1)NC(=O)[C@H](Cc1ccc(O)cc1)NC(=O)[C@H](CO)NC(=O)[C@H](C)NC(=O)[C@@H]1CCCN1C(=O)[C@@H](N)CS)C(C)C)C(=O)NCC(=O)N[C@@H](CS)C(=O)N1CCC[C@H]1C(=O)N[C@@H](Cc1ccc(O)cc1)C(=O)N[C@@H](CCCNC(=N)N)C(=O)N[C@H](C(=O)O)[C@@H](C)O` (H-CPASYFQCRHHNHCYPMEWRCDGFHDCVDGSDEIGCPYRT-OH), the IC50 in assay [1] and in assay [2] was at most 1 nM throughout.

The IC50 is the concentration that inhibits the measured activity by half.
